Experimental data from patent publication US20240150334A1, “HSD17B13 INHIBITORS AND/OR DEGRADERS” (Pfizer Inc., priority 2022, published 2024).
Counter-ions that a name gives are not always drawn.

Molecular target: wild type human HSD17B13 (Homo sapiens (Human), UniProt Q7Z5P4)
Assay: HEK_Beta-Est LCMS_IC50_Tekcel, whole-cell HEK-HSD17B13 inhibition assay, estrone production by LCMS
Assay type: cell-based
Conditions: geometric mean, HEK cells stably expressing wild type human HSD17B13, 25 μM FAC beta-estradiol, read-out: HEK_Beta-Est LCMS_IC50—Tekcel GMean IC50
Protocol: HEK_Beta-Est LCMS_IC50_Tekcel
Inhibition potency of test compounds was determined using a whole-cell HEK-HSD17B13 inhibition assay, utilizing a LCMS readout.
HSD17B13 uses the oxidized form of nicotinamide adenine dinucleotide (NAD+) as a cofactor during metabolism of beta-estradiol (substrate), converting NAD+ to the reduced form (NADH) and beta-estradiol to its product (estrone). Estrone production is quantified by LCMS, and used as a measure of HSD17B13 enzyme activity.
([…]: 5% CO2). […] Growth media was then removed from the cell plates and replaced with 10 μL of 2×FAC test compound, and incubated for 1 hour (with lid) at 37° C. […] The reaction was incubated for 2 hours (with lid) at 37° C. […] Amount of product (estrone) was then quantified by LCMS. Data expressed as product area ratio (PAR) were then normalized to control wells using Activity Base (IDBS). Zero percent effect (ZPE) was defined as PAR generated from uninhibited HSD17B13 (vehicle control).

Chain of wild type human HSD17B13 (Q7Z5P4 20-300): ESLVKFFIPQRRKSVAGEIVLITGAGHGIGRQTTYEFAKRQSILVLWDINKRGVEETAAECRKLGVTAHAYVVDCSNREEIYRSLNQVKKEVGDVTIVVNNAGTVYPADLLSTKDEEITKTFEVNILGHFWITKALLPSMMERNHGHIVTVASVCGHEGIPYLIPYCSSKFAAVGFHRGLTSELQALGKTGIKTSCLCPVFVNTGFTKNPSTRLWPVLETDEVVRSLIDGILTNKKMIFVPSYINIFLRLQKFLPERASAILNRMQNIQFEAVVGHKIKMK

Row | SMILES | IC50 [nM]
1 | O=C(NC[C@H]1CC[C@H](n2cc3ccc(-c4cnn(CCO)c4)cc3n2)CC1)c1cc(F)c(O)c(F)c1 [Example 160, 3,5-difluoro-4-hydroxy-N-{[(1r,4r)-4-{6-[1-(2-hydroxyethyl)-1H-pyrazol-4-yl]-2H-indazol-2-yl}cyclo-hexyl]methyl} benzamide, trifluoroacetate salt] | 400
2 | Cn1cc(-c2ccn3cc([C@H]4CC[C@H](CNC(=O)c5cc(F)c(O)c(F)c5F)CC4)nc3c2)cn1 [Example 30, 2,3,5-trifluoro-4-hydroxy-N-({(1r,4r)-4-[7-(1-methyl-1H-pyrazol-4-yl)imidazo[1,2-a]pyridin-2-yl]cyclohexyl}methyl) benzamide] | 360
3 | Cn1cc(-c2ccc3cn([C@]45CC[C@](CNC(=O)c6cc(F)c(O)c(F)c6F)(CC4)CC5)nc3c2)cn1 [Example 209, 2,3,5-trifluoro-4-hydroxy-N-({4-[6-(1-methyl-1H-pyrazol-4-yl)-2H-indazol-2-yl]bicyclo[2.2.2]octan-1-yl}methyl)benzamide] | 150
4 | O=C(NC[C@H]1CC[C@H](n2cc3ccc(-c4cccn5ncnc45)cc3n2)CC1)c1cc(F)c(O)c(F)c1 [Example 113, 3,5-difluoro-4-hydroxy-N-({(1r,4r)-4-[6-([1,2,4]triazolo[1,5-a]pyridin-8-yl)-2H-indazol-2-yl]cyclohexyl}methyl) benzamide, trifluoroacetate salt] | 320
5 | COc1cccc(-c2ccc3cn([C@H]4CC[C@H](CNC(=O)c5cc(F)c(O)c(F)c5)CC4)nc3c2)n1 [Example 116, 3,5-difluoro-4-hydroxy-N-({(1r,4r)-4-[6-(6-methoxy-pyridin-2-yl)-2H-indazol-2-yl]cyclohexyl}methyl) benzamide, trifluoroacetate salt] | 190
6 | O=C(NC[C@H]1CC[C@H](n2cc3ccc(-c4csc(N5CCOCC5)n4)cc3n2)CC1)c1cc(F)c(O)c(F)c1 [Example 114, 3,5-difluoro-4-hydroxy-N-{[(1r,4r)-4-{6-[2-(morpholin-4-yl)-1,3-thiazol-4-yl]-2H-indazol-2-yl}cyclohexyl]methyl} benzamide] | 170
7 | Cc1cccc(-c2ccc3cn([C@H]4CC[C@H](CNC(=O)c5cc(F)c(O)c(F)c5)CC4)nc3c2)n1 [Example 118, 3,5-difluoro-4-hydroxy-N-({(1r,4r)-4-[6-(6-methylpyridin-2-yl)-2H-indazol-2-yl]cyclohexyl}methyl) benzamide, trifluoroacetate salt] | 230
8 | COc1nc(-c2ccc3cn([C@H]4CC[C@H](CNC(=O)c5cc(F)c(O)c(F)c5)CC4)nc3c2)nn1C [Example 86, 3,5-difluoro-4-hydroxy-N-({(1r,4r)-4-[6-(5-methoxy-1-methyl-1H-1,2,4-triazol-3-yl)-2H-indazol-2-yl]cyclohexyl}methyl) benzamide] | 270

The remaining lines, values ahead:

Row | IC50 [nM] | SMILES
9 | 94 | O=C(NC[C@H]1CC[C@H](n2cc3ccc(-c4ccns4)cc3n2)CC1)c1cc(F)c(O)c(F)c1 [Example 83, 3,5-difluoro-4-hydroxy-N-({(1r,4r)-4-[6-(1,2-thiazol-5-yl)-2H-indazol-2-yl]cyclohexyl}methyl) benzamide]
10 | 110 | O=C(NC[C@H]1CC[C@H](n2cc3cc(-c4ncccn4)ccc3n2)CC1)c1cc(F)c(O)c(F)c1 [Example 154, 3,5-difluoro-4-hydroxy-N-({(1r,4r)-4-[5-(pyrimidin-2-yl)-2H-indazol-2-yl]cyclohexyl}methyl) benzamide]
11 | 170 | N#Cc1cccc(-c2ccc3nn([C@H]4CC[C@H](CNC(=O)c5cc(F)c(O)c(F)c5)CC4)cc3c2)c1 [Example 156, N-({(1r,4r)-4-[5-(3-cyanophenyl)-2H-indazol-2-yl]cyclohexyl}methyl)-3,5-difluoro-4-hydroxybenzamide]
12 | 270 | O=C(NC[C@H]1CC[C@H](n2cc3cc(-c4cncnc4)ccc3n2)CC1)c1cc(F)c(O)c(F)c1 [Example 157, 3,5-difluoro-4-hydroxy-N-({(1r,4r)-4-[5-(pyrimidin-5-yl)-2H-indazol-2-yl]cyclohexyl}methyl) benzamide, trifluoroacetate salt]
